The source of these data is patent US20180125835A1, “Dosage and Use of an A2A Antagonist” (H. Lundbeck A/S, priority 2014, published 2018).

The target in series [1] is T1, A1 receptor (Callithrix jacchus, UniProt U3EV00).
T1 sequence (U3EV00 1-326): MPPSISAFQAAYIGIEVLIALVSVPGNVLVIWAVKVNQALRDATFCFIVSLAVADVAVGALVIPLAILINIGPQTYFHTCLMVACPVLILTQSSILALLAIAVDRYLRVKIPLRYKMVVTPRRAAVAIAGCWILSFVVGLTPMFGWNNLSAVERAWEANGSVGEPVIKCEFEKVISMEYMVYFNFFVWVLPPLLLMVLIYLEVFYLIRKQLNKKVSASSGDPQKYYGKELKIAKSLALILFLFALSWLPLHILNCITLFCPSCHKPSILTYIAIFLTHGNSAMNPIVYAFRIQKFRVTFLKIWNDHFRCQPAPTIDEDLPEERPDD
Briefly: Adenosine receptor binding affinity, marmoset A1.

Another series addresses A2A receptor (Homo sapiens, UniProt P29274). Briefly: biochemical.
Series [2] is described as follows: PET study, pharmacokinetic assessments. Format: in vivo. Particulars: human, plasma, single oral doses 0.5 to 5 mg. The source says: The pharmacokinetic parameters of compound 504 were estimated using non-compartmental analysis.
For series [3], the target named is T2, A1 receptor (Canis lupus familiaris, UniProt P11616).
T2 sequence (P11616 1-326): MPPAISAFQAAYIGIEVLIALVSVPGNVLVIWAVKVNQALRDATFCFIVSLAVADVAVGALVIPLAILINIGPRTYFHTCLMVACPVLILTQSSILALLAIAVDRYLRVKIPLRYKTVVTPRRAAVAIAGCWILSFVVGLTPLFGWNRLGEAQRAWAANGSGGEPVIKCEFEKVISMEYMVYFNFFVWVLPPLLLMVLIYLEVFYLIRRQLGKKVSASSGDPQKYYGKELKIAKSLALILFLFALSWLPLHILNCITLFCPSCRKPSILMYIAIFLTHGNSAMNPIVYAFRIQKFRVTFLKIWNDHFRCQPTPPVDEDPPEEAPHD
Briefly: Adenosine receptor binding affinity, dog A1.

A further series has as its target T3, A3 (Homo sapiens, UniProt P0DMS8).
T3 sequence (P0DMS8 1-318): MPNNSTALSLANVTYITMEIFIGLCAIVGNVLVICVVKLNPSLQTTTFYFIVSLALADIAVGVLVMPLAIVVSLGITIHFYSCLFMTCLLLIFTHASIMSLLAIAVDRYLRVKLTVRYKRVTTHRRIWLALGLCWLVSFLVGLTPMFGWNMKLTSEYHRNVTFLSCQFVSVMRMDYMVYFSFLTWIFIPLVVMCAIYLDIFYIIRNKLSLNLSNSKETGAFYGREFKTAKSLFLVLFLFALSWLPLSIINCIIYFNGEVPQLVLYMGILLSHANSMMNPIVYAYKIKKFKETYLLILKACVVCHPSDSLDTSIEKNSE
Briefly: Adenosine receptor binding affinity, human A3.

The target of the next series is T4, A2B (Homo sapiens, UniProt P29275).
T4 sequence (P29275 1-332): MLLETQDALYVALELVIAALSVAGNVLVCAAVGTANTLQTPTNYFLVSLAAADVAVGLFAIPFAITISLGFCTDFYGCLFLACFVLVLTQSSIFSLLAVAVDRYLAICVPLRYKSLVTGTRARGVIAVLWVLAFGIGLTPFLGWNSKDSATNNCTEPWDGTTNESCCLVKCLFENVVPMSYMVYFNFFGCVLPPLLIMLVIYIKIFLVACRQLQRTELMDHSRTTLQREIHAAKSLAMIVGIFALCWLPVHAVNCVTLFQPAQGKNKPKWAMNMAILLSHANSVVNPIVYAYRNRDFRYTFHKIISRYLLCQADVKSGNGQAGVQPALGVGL
Briefly: Adenosine receptor binding affinity, human A2B.

The test system of another series is Long Evans rats. Briefly: 5-choice serial reaction time task (5-CSRTT). Format: in vivo, rat. The source says: (A) Testing under standard conditions, i.e. equivalent to final conditions to which the animals were trained, i.e. stimulus duration (SD) 0.75 seconds (s), inter-trial interval (ITI) 5 s, 100 trials. The purpose of this condition being to measure drug effect on performance under standard conditions. (B) Testing under conditions of extended (long) ITI, i.e. low event rate, SD 0.3 s, ITI 5, 7.5, 10 s, 120 trials. The purpose of this condition being to measure drug effect on performance under lower event rate requiring the animal to delay its responding. (C) Testing under conditions of short ITI, i.e. high event rate, SD 0.3 s, ITI 3, 4, 5 s, 120 trials. The purpose of this condition to measure drug effect on performance under high event rate requiring the animal to rapidly process sensory information. (D) Testing under conditions of extended trials, i.e. SD 0.3 s, ITI 5 s, 250 trials. The purpose of this condition to measure drug effect on performance under extended trials, testing sustained attention or vigilance.
Sixteen (16) experimentally naïve, male Long Evans rats were trained to asymptotic performance in the 5-CSRTT over a period of approximately 2-3 months. The rats were trained to final stimulus duration (SD) of 0.75 s, 5 s inter-trial interval (ITI), 5 s limited hold (LH), 100 trials per session. Target performance levels under these conditions was in the range of >80% accuracy and <20% omissions.
Once the group of animals were trained, multiple drug studies according to various experimental tasks (see table 2 below) was tested in the same cohort of rats. […] The study design was made up of 4 experiments, with each experiment 2-3 weeks in duration and a 1 week intervening period between each experiment.

For series [4], the target named is T5, A1 receptor (Mus musculus, UniProt Q60612).
T5 sequence (Q60612 1-326): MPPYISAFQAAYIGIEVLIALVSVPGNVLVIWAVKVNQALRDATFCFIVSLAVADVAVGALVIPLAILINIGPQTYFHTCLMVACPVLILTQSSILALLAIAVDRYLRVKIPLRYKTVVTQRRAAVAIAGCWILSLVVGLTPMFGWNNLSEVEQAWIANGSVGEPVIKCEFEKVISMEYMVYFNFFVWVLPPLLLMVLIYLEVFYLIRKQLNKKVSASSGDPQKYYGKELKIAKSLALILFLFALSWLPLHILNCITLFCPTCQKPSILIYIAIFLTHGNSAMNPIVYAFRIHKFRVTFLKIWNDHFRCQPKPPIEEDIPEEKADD
Put plainly: Adenosine receptor binding affinity, mouse A1.

Sequence of A2A receptor (P29274 whole entry): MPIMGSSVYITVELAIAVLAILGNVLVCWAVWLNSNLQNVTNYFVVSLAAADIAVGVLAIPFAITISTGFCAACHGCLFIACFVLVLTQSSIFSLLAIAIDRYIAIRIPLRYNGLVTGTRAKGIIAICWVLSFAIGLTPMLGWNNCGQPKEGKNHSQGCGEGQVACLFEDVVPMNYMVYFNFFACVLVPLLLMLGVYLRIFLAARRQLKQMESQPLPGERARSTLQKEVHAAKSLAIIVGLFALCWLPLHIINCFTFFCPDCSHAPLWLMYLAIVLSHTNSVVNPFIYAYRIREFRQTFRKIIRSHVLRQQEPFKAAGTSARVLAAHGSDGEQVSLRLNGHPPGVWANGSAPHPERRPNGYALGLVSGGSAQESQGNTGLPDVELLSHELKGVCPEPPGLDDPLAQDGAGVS

The Ki is a measure of affinity in units of concentration, obtained from inhibition or displacement. High values mean a looser hold on the target, low ones a stronger hold on the target. As usually defined, the Tmax is the time from dosing to the highest level. As for `Cc1ccc(C(=O)Nc2nc(-c3ccco3)c(C(=O)C3CCOCC3)s2)cn1` [Compound 504], the Ki on A1 receptor [1] worked out at 305 ± 6.6 nM; at A2A receptor it was 0.118 ± 0.0023 nM; on A1 receptor [3] it was 450 ± 51.1 nM; at A3, 428 ± 72.5 nM; at A2B, 33.8 ± 5.91 nM; on A1 receptor [4], 31.1 ± 1.09 nM. Further, the Tmax in series [2] lay in the range of 1 to 2 h. For the same compound, the “correct trials completed by all rats in Bin 5” value in the series with Long Evans rats (extended 250 trials, 0.1 mg/kg) is “at least 13”. The “decline in % correct and number of correct responses, increase in omissions over Bins 4 and 5” value with Long Evans rats (extended 250 trials, 0.03-0.1 mg/kg oral, particularly 0.06-0.1 mg/kg) is reported as “protected against the decline”. Moreover, in the series with Long Evans rats (long ITI, 0.06 mg/kg oral), the premature responses entry is “increased”. The “accuracy under long ITI” value in the series with Long Evans rats (long ITI, 0.06 mg/kg oral, P=0.09) is “non-significant trend of compound 504 to reduce accuracy”. For the same compound, in the series with Long Evans rats (short ITI, 0.03-0.06 mg/kg oral, particularly at 3 s ITI), the “performance in terms of choice accuracy” value is given as “improved performance”. Besides, the “% correct, # incorrect responses, omissions, premature responses” value in the series on Long Evans rats (short ITI, averaged over the multiple ITI) is “improving performance on each measure”. Also, the “other measures (% correct, # correct/incorrect responses, omissions, magazine latency)” value in the series on Long Evans rats (standard conditions) is given as “unaffected”. The “speed of responding (correct latency)” value in the series on Long Evans rats (standard conditions, doses 0.03-0.1 mg/kg oral) is “significantly increased speed of responding”. In the series on Long Evans rats (standard conditions, significant only at 0.1 mg/kg), the premature responding result was “increased premature responding”.
